Results from patent US8071810B2, “C5a receptor antagonists” (Jerini AG, priority 2005, dated 2011).
pIC50: −log10 of the molar value.

Target: T1, human C5a receptor (CD88) (Homo sapiens, UniProt P21730)
T1 construct: expressed in transfected cells; host or cells: rat basophilic leukemia (RBL) cells, stably transfected
T1 sequence (P21730 1-350): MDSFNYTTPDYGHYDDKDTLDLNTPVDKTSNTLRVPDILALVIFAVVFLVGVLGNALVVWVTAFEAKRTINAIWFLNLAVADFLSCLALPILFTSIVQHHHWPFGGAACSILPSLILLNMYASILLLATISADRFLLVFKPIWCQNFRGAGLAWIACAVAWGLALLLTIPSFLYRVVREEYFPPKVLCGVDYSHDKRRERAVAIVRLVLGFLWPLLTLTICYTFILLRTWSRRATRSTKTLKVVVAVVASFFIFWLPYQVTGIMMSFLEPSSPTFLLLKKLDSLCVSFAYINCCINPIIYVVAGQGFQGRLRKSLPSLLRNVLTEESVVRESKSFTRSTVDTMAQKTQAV
Experiment: C5a induced enzyme (glucosaminidase) release assay in RBL cells expressing the human C5a receptor (Example 28)
Format: cell-based
Settings: IC50 for the inhibition of C5a induced enzyme release, RBL cells with human C5aR
Procedure: Basophile leukemia cells from rats (RBL), which express the human C5a receptor (CD88), are cultivated in DMEM with 10% fetal calf serum, 100 U/ml penicillin, 100 μg/ml streptomycin and 2 mM glutamin (all constituents are from Biochrome, Berlin) at 37° C. and with 10% CO2 until a confluent layer is obtained. All following details refer to a tissue culture flask with 75 cm^2 surface. The used up medium is removed. The cells are washed with 10 ml PBS (Dulbecco's PBS, Biochrome) and then covered with 3 ml cell dissociation solution (CDS, Sigma). The cells are incubated for 1 minute at room temperature. Then the CDS is removed and the cells are incubated for further 10-15 minutes at 37° C. to detach the cells completely from the flask. 20 μl solution of the compound to be testet are used in the assay. […] The dilution series are prepared in ⅓ or ½ steps. […] The cells are counted and centrifuged (200 g, 10 min). The cell pellet is taken up with pre-heated HAG-CM, and the cell density is adjusted to 2×10^6 Zellen/ml. The cells are incubated for 5 minutes at 37° C. 2.7 μl of a cytochalasin B solution (1000 μg/ml in DMSO, Sigma) are added per ml cell suspension. The Zellen are incubated for another 3 min at 37° C. Then, 75 μl of the cell suspension are added to the 20 μl solution containing the compounds to be tested. […] The cells are again incubated for 10 minutes at 37° C. […] After this the plates are put on ice and centrifuged for 3 minutes at 1200×g and 4° C. […] The plate is incubated for 1 hour at 37° C. […] The IC50 value is determined by solving the four parameter equation y=((A−D)/(1+(x/C)^B))+D.

Work on `COc1ccc2c(c1)C(C(=O)N(Cc1ccc(N(C)C)cc1)c1ccc(C(C)C)cc1)CCC2` (stereo not shown) [compound 12, 7-methoxy-1,2,3,4-tetrahydro-naphthalin-1-carbonsäure (4-dimethylamino-benzyl)-(4-isopropyl-phenyl)-amide, reference compound] yielded a pIC50 of 7.05.

Same assay, conditions: RBL cells with human C5aR; read-out: IC50 for the inhibition of C5a induced enzyme release

Going from `CCc1ccc(N(C(=O)Nc2c(CC)c(N)cc(Cl)c2CC)[C@@H](C)c2ccc(Cl)cc2)cc1F` to `CCc1ccc(Cl)c(CC)c1NC(=O)N(Cc1ccc(OC)cc1)c1ccc(C(C)C)cc1` [compound 24, 3-(3-Chlor-2,6-diethyl-phenyl)-1-(4-isopropyl-phenyl)-1-(4-methoxy-benzyl)-urea], the pIC50 falls from 7.46 to 5.98 (1.48 log units). The first is the more potent here.

Same assay, conditions: inhibition of C5a induced enzyme release, RBL cells with human C5aR; read-out: Activity-range (antagonistic activity, IC50 enzyme release)

First: CCc1c(N)cc(Cl)c(CC)c1NC(=O)N(c1ccc(Cl)cc1)[C@@H](C)c1ccc(Cl)cc1 [compound 86, (S)-3-(3-amino-5-chloro-2,6-diethyl-phenyl)-1-(4-chlor-phenyl)-1-[1-(4-chloro-phenyl)-ethyl]-urea]
Second: CCc1ccc(N(C(=O)Nc2c(CC)c(N)cc(Cl)c2CC)[C@@H](C)c2ccc(F)cc2)cc1 [compound 82, (S)-3-(3-amino-5-chloro-2,6-diethyl-phenyl)-1-(4-ethyl-phenyl)-1-[1-(4-fluoro-phenyl)-ethyl]-urea]
The pIC50 of the first is lower: 5.30 to 6.70 for the first, 6.70 to 7.22 for the second. The second is the more potent here.

Compared with `CCc1ccc(N(Cc2ccc(C)cc2)C(=O)Nc2c(CC)c(N)cc(Cl)c2CC)cc1` [compound 53, 3-(3-amino-5-chloro-2,6-diethyl-phenyl)-1-(4-ethyl-phenyl)-1-(4-methyl-benzyl)-urea], `CCc1c(N)cc(Cl)c(CC)c1NC(=O)N(CCc1ccc(C)cc1)c1ccc(C(C)C)cc1` [compound 52, 3-(3-amino-5-chloro-2,6-diethyl-phenyl)-1-(4-isopropyl-phenyl)-1-(2-p-tolyl-ethyl)-urea] is lower in pIC50: 6.70 to 7.22 for the first, 5.30 to 6.70 for the second. The first is the more potent here.

`CCc1ccc(N)c(CC)c1NC(=O)N(Cc1ccc(OC)cc1F)c1ccc(C(C)C)cc1` [compound 59, 3-(3-amino-2,6-diethyl-phenyl)-1-(2-fluoro-4-methoxy-benzyl)-1-(4-isopropyl-phenyl)-urea] and `CCc1ccc(N)c(CC)c1NC(=O)N(Cc1ccc(OC)cc1)c1ccc(C(C)C)cc1` [compound 28, 3-(3-amino-2,6-diethyl-phenyl)-1-(4-isopropyl-phenyl)-1-(4-methoxy-benzyl)-urea] fall in the same range of pIC50: 5.30 to 6.70 for the first, 5.30 to 6.70 for the second.

First: COc1ccc2c(c1)C(C(=O)N(Cc1ccc(N(C)C)cc1)c1ccc(C(C)C)cc1)CCC2 (stereo not shown) [compound 12, 7-methoxy-1,2,3,4-tetrahydro-naphthalin-1-carbonsäure (4-dimethylamino-benzyl)-(4-isopropyl-phenyl)-amide, reference compound]
Second: CCc1c(Cl)cc(NCC(=O)OC)c(CC)c1NC(=O)N(Cc1ccc(OC)cc1)c1ccc(C(C)C)cc1 [compound 55, {5-chloro-2,4-diethyl-3-[3-(4-isopropyl-phenyl)-3-(4-methoxy-benzyl)-ureido]-phenylamino} acetic acid methyl-ester]
The pIC50 of the first is higher: 6.70 to 7.22 for the first, 5.30 to 6.70 for the second. The first is the more potent here.

Compared with `CCNc1ccc(N(Cc2ccc(Cl)cc2)C(=O)Nc2c(CC)c(N)cc(Cl)c2CC)cc1` [compound 136, 3-(3-amino-5-chloro-2,6-diethyl-phenyl)-1-(4-chloro-benzyl)-1-(4-ethylamino-phenyl)-urea], `CCc1c(N)cc(Cl)c(CC)c1NC(=O)N(Cc1ccc(Cl)cc1)c1ccc(OC(F)F)cc1` [compound 117, 3-(3-amino-5-chloro-2,6-diethyl-phenyl)-1-(4-chloro-benzyl)-1-(4-difluoromethoxy-phenyl)-urea] is lower in pIC50: over 7.22 for the first, 5.30 to 6.70 for the second. The first is the more potent here.

`CCc1ccc(N)c(CC)c1NC(=O)N(Cc1ccc(Cl)cc1)c1ccc(NC)cc1` [compound 119, 3-(3-amino-2,6-diethyl-phenyl)-1-(4-chloro-benzyl)-1-(4-methylamino-phenyl)-urea] and `CCc1ccc(N)c(CC)c1NC(=O)N(c1ccc(C(C)C)cc1)[C@@H](C)c1ccc(C)cc1` [compound 69, (S)-3-(3-amino-2,6-diethyl-phenyl)-1-(4-isopropyl-phenyl)-1-(1-p-tolyl-ethyl)-urea] fall in the same range of pIC50: 6.70 to 7.22 for the first, 6.70 to 7.22 for the second.

`CCc1ccc(N(C(=O)Nc2c(C(C)(C)C)ccc(N)c2C)[C@@H](C)c2ccc(Cl)cc2)cc1` [compound 111, (S)-3-(3-amino-6-tert-butyl-2-methyl-phenyl)-1-[1-(4-chloro-phenyl)-ethyl]-1-(4-ethyl-phenyl)-urea] gave a pIC50 of 5.30 to 6.70.
